The subject of assay [1] is RS4; 11 leukaemia cell line. The assay can be described thus: In vitro cytotoxicity, Microculture Tetrazolium Assay (MTT). Format: cell-based. The conditions noted are these: Homo sapiens, 11 cells exposed for 48 hours. Here is the method:
The cytotoxicity studies were carried out on the RS4; 11 leukaemia cell line and on H146 small Cell Lung Carcinoma cell line. The cells are distributed onto microplates and exposed to the test compounds for 48 hours. The cell viability is then quantified by a colorimetric assay, the Microculture Tetrazolium Assay (Cancer Res., 1987, 47, 939-942).

For the next assay, the target named is Bcl-2 protein (histag-Bcl-2, UniProtKB P10415) (Homo sapiens (Human), UniProt P10415). The assay is described as follows: Inhibition of Bcl-2 by the fluorescence polarisation technique. Format: binding. To be noted: fluorescence polarisation test; incubation for 2 hours; read-out: IC50 (nM) Bcl-2 FP. The text has this: For partial inhibitors, the percentage fluorescence polarisation inhibition for a given concentration of the test compound is indicated.
Chain of Bcl-2 protein (P10415 whole entry): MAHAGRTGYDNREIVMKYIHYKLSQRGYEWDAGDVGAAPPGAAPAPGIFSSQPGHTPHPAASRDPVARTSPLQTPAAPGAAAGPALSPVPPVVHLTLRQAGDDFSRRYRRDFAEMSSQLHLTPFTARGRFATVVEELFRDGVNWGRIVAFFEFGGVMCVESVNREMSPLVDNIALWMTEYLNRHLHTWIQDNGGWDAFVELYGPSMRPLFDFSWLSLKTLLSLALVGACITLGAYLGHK

Molecules are shown by their SMILES. Structures can show the parent of a compound that is named as a salt.

What is called IC50 is the concentration that gives 50% inhibition. Regarding `CN(C(=O)c1cc(-c2cc3c(cc2C(=O)N2Cc4ccccc4C[C@H]2CN2CCOCC2)CN(C(=O)Oc2ccccc2)C3)n2c1CCCC2)c1ccc(O)cc1` [Example 16, Phenyl 5-{1-[(4-hydroxyphenyl)(methyl)carbamoyl]-5,6,7,8-tetrahydroindolizin-3-yl}-6-[(3S)-3-(morpholin-4-ylmethyl)-1,2,3,4-tetrahydroisoquinoline-2-carbonyl]-2,3-dihydro-1H-isoindole-2-carboxylate hydrochloride], the IC50 in assay [1] was determined as 27 nM; on Bcl-2 protein, 6 nM.

As for `CN(C(=O)c1cc(-c2cc3c(cc2C(=O)N2Cc4ccccc4C[C@H]2CN2CCOCC2)CN(C(=O)NC(C)(C)C)C3)n2c1CCCC2)c1ccc(O)cc1` [Example 17, N-tert-Butyl-5-{1-[(4-hydroxyphenyl)(methyl)carbamoyl]-5,6,7,8-tetrahydroindolizin-3-yl}-6-[(3S)-3-(morpholin-4-ylmethyl)-1,2,3,4-tetrahydroisoquinoline-2-carbonyl]-2,3-dihydro-1H-isoindole-2-carboxamide hydrochloride], the IC50 in assay [1] was 1760 nM; at Bcl-2 protein, 91 nM.

Regarding `CCS(=O)(=O)N1Cc2cc(C(=O)N3Cc4ccccc4C[C@H]3CN3CCOCC3)c(-c3cc(C(=O)N(C)c4ccc(O)cc4)c4n3CCCC4)cc2C1` [Example 18, 3-[2-(Ethanesulfonyl)-6-[(3S)-3-(morpholin-4-ylmethyl)-1,2,3,4-tetrahydroisoquinoline-2-carbonyl]-2,3-dihydro-1H-isoindol-5-yl]-N-(4-hydroxyphenyl)-N-methyl-5,6,7,8-tetrahydroindolizine-1-carboxamide hydrochloride], the IC50 was determined as 1290 nM in assay [1] and 38 nM on Bcl-2 protein.

On to `CN(C(=O)c1cc(-c2cc3c(cc2C(=O)N2Cc4ccccc4C[C@H]2CN2CCOCC2)CN(S(=O)(=O)c2ccccc2)C3)n2c1CCCC2)c1ccc(O)cc1` [Example 19, 3-[2-(Benzenesulfonyl)-6-[(3S)-3-(morpholin-4-ylmethyl)-1,2,3,4-tetrahydroisoquinoline-2-carbonyl]-2,3-dihydro-1H-isoindol-5-yl]-N-(4-hydroxyphenyl)-N-methyl-5,6,7,8-tetrahydroindolizine-1-carboxamide hydrochloride], for which the results for the IC50 (in assay [1]; on Bcl-2 protein) were 774 nM and 47 nM, respectively.

In the case of `C[C@@H]1Cc2ccccc2CN1C(=O)c1cc2c(cc1-c1cc(C(=O)N(C)c3ccc(O)cc3)c3n1CCCC3)CN(C(=O)C1CC1)C2` [Example 20, 3-{2-Cyclopropanecarbonyl-6-[(3R)-3-methyl-1,2,3,4-tetrahydroisoquinoline-2-carbonyl]-2,3-dihydro-1H-isoindol-5-yl}-N-(4-hydroxyphenyl)-N-methyl-5,6,7,8-tetrahydroindolizine-1-carboxamide], the IC50 in assay [1] was over 150 nM; at Bcl-2 protein, 20 nM.

`CN(C(=O)c1cc(-c2cc3c(cc2C(=O)N2Cc4ccccc4C[C@H]2CN2CCOCC2)CN(S(=O)(=O)CCc2ccccc2)C3)n2c1CCCC2)c1ccc(O)cc1` [Example 21, N-(4-Hydroxyphenyl)-N-methyl-3-{6-[(3S)-3-(morpholin-4-ylmethyl)-1,2,3,4-tetrahydroisoquinoline-2-carbonyl]-2-(2-phenylethanesulfonyl)-2,3-dihydro-1H-isoindol-5-yl}-5,6,7,8-tetrahydroindolizine-1-carboxamide hydrochloride]: the results for the IC50 (in assay [1]; at Bcl-2 protein) were 112 nM and 14 nM, respectively.

As for `CN(C(=O)c1cc(-c2cc3c(cc2C(=O)N2Cc4ccccc4C[C@H]2CN2CCOCC2)CN(S(=O)(=O)c2cccnc2)C3)n2c1CCCC2)c1ccc(O)cc1` [Example 22, N-(4-Hydroxyphenyl)-N-methyl-3-{6-[(3S)-3-(morpholin-4-ylmethyl)-1,2,3,4-tetrahydroisoquinoline-2-carbonyl]-2-(pyridine-3-sulfonyl)-2,3-dihydro-1H-isoindol-5-yl}-5,6,7,8-tetrahydroindolizine-1-carboxamide hydrochloride], the values for the IC50 (in assay [1]; on Bcl-2 protein) were over 150 nM and 70 nM, respectively.

As for `CC(Cc1ccccc1)C(=O)N1Cc2cc(C(=O)N3Cc4ccccc4C[C@H]3C)c(-c3cc(C(=O)N(C)c4ccc(O)cc4)c4n3CCCC4)cc2C1` (stereo partly drawn) [Example 23, 3-[2-(2-Benzylpropanoyl)-6-[(3R)-3-methyl-1,2,3,4-tetrahydroisoquinoline-2-carbonyl]-2,3-dihydro-1H-isoindol-5-yl]-N-(4-hydroxyphenyl)-N-methyl-5,6,7,8-tetrahydroindolizine-1-carboxamide], the 50% inhibitory concentration (IC50) amounted to 61 nM in assay [1] and 13 nM on Bcl-2 protein.

Regarding `CC(Cc1ccc(Cl)cc1)C(=O)N1Cc2cc(C(=O)N3Cc4ccccc4C[C@H]3C)c(-c3cc(C(=O)N(C)c4ccc(O)cc4)c4n3CCCC4)cc2C1` (stereo partly drawn) [Example 24, 3-(2-{2-[(4-Chlorophenyl)methyl]propanoyl}-6-[(3R)-3-methyl-1,2,3,4-tetrahydroisoquinoline-2-carbonyl]-2,3-dihydro-1H-isoindol-5-yl)-N-(4-hydroxyphenyl)-N-methyl-5,6,7,8-tetrahydroindolizine-1-carboxamide], the values for the IC50 (in assay [1]; on Bcl-2 protein) were over 150 nM and 19 nM, respectively.

`Cc1ccc(CC(C)C(=O)N2Cc3cc(C(=O)N4Cc5ccccc5C[C@H]4C)c(-c4cc(C(=O)N(C)c5ccc(O)cc5)c5n4CCCC5)cc3C2)cc1` (stereo partly drawn) [Example 25, N-(4-Hydroxyphenyl)-N-methyl-3-{6-[(3R)-3-methyl-1,2,3,4-tetrahydroisoquinoline-2-carbonyl]-2-{2-[(4-methylphenyl)methyl]propanoyl}-2,3-dihydro-1H-isoindol-5-yl}-5,6,7,8-tetrahydroindolizine-1-carboxamide]: the IC50 in assay [1] was found to be 144 nM; on Bcl-2 protein, 29 nM.

In the case of `C[C@@H]1Cc2ccccc2CN1C(=O)c1cc2c(cc1-c1cc(C(=O)N(C)c3ccc(O)cc3)c3n1CCCC3)CN(C(=O)Cc1ccc(OC(F)(F)F)cc1)C2` [Example 26, N-(4-Hydroxyphenyl)-N-methyl-3-{6-[(3R)-3-methyl-1,2,3,4-tetrahydroisoquinoline-2-carbonyl]-2-{2-[4-(trifluoromethoxy)phenyl]acetyl}-2,3-dihydro-1H-isoindol-5-yl}-5,6,7,8-tetrahydroindolizine-1-carboxamide], the IC50 in assay [1] was found to be 86 nM; on Bcl-2 protein, 30 nM.

Take `C[C@@H]1Cc2ccccc2CN1C(=O)c1cc2c(cc1-c1cc(C(=O)N(C)c3ccc(O)cc3)c3n1CCCC3)CN(Cc1ccccn1)C2` [Example 28, N-(4-Hydroxyphenyl)-N-methyl-3-{6-[(3R)-3-methyl-1,2,3,4-tetrahydroisoquinoline-2-carbonyl]-2-(pyridin-2-ylmethyl)-2,3-dihydro-1H-isoindol-5-yl}-5,6,7,8-tetrahydroindolizine-1-carboxamide]: the IC50 in assay [1] is over 150 nM; at Bcl-2 protein, 23 nM.

As to `C[C@@H]1Cc2ccccc2CN1C(=O)c1cc2c(cc1-c1cc(C(=O)N(C)c3ccc(O)cc3)c3n1CCCC3)CN(CCC1CCCCC1)C2` [Example 29, 3-[2-(2-Cyclohexylethyl)-6-[(3R)-3-methyl-1,2,3,4-tetrahydroisoquinoline-2-carbonyl]-2,3-dihydro-1H-isoindol-5-yl]-N-(4-hydroxyphenyl)-N-methyl-5,6,7,8-tetrahydroindolizine-1-carboxamide], the figures for the IC50 (in assay [1]; at Bcl-2 protein) were over 150 nM and 28 nM, respectively.

Regarding `C[C@@H]1Cc2ccccc2CN1C(=O)c1cc2c(cc1-c1cc(C(=O)N(C)c3ccc(O)cc3)c3n1CCCC3)CN(CCCc1ccccc1)C2` [Example 30, N-(4-Hydroxyphenyl)-N-methyl-3-{6-[(3R)-3-methyl-1,2,3,4-tetrahydroisoquinoline-2-carbonyl]-2-(3-phenylpropyl)-2,3-dihydro-1H-isoindol-5-yl}-5,6,7,8-tetrahydroindolizine-1-carboxamide], the IC50 came out at 119 nM in assay [1] and 16 nM on Bcl-2 protein.

On to `C[C@@H]1Cc2ccccc2CN1C(=O)c1cc2c(cc1-c1cc(C(=O)N(C)c3ccc(O)cc3)c3n1CCCC3)CN(C(=O)Cc1csc(-c3cnccn3)n1)C2` [Example 31, N-(4-Hydroxyphenyl)-N-methyl-3-{6-[(3R)-3-methyl-1,2,3,4-tetrahydroisoquinoline-2-carbonyl]-2-{2-[2-(pyrazin-2-yl)-1,3-thiazol-4-yl]acetyl}-2,3-dihydro-1H-isoindol-5-yl}-5,6,7,8-tetrahydroindolizine-1-carboxamide], for which the IC50 in assay [1] was 113 nM; on Bcl-2 protein, 7.4 nM.

`C[C@@H]1Cc2ccccc2CN1C(=O)c1cc2c(cc1-c1cc(C(=O)N(C)c3ccc(O)cc3)c3n1CCCC3)CN(C(=O)CCC1CCCCC1)C2` [Example 32, 3-[2-(3-Cyclohexylpropanoyl)-6-[(3R)-3-methyl-1,2,3,4-tetrahydroisoquinoline-2-carbonyl]-2,3-dihydro-1H-isoindol-5-yl]-N-(4-hydroxyphenyl)-N-methyl-5,6,7,8-tetrahydroindolizine-1-carboxamide]: the IC50 was determined as 141 nM in assay [1] and 47 nM on Bcl-2 protein.

`C[C@@H]1Cc2ccccc2CN1C(=O)c1cc2c(cc1-c1cc(C(=O)N(C)c3ccc(O)cc3)c3n1CCCC3)CN(Cc1ccccc1)C2` [Example 33, 3-{2-Benzyl-6-[(3R)-3-methyl-1,2,3,4-tetrahydroisoquinoline-2-carbonyl]-2,3-dihydro-1H-isoindol-5-yl}-N-(4-hydroxyphenyl)-N-methyl-5,6,7,8-tetrahydroindolizine-1-carboxamide]: the IC50 in assay [1] came to 460 nM; on Bcl-2 protein, 33 nM.

In the case of `CCC(=O)N1CCc2cc(-c3cc(C(=O)N(C)c4ccc(O)cc4)c4n3CCCC4)c(C(=O)N3Cc4ccccc4C[C@H]3C)cc2C1` [Example 34, N-(4-Hydroxyphenyl)-N-methyl-3-{7-[(3R)-3-methyl-1,2,3,4-tetrahydroisoquinoline-2-carbonyl]-2-propanoyl-1,2,3,4-tetrahydroisoquinolin-6-yl}-5,6,7,8-tetrahydroindolizine-1-carboxamide], the IC50 in assay [1] was 19 nM; on Bcl-2 protein it was 4.9 nM.

Values taken from US9809574B2, “Isoindoline or isoquinoline compounds, a process for their preparation and pharmaceutical compositions containing them” (LES LABORATOIRES SERVIER, priority 2013, dated 2017).
